Counter-ions that a name gives are not always drawn. Like-named read-outs stand apart in the source and are kept apart here.
What was measured:
SHP2 = SHP2 (Homo sapiens (Human), UniProt Q06124); assay: SHP2 Biochemical Assay (DiFMUP conversion, pIRS1-activated)
In short: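 Rates of DiFMU formation were followed 30 min at ex 360/em 450 nm, with 50 μM DiFMUP, 10 pM SHP2 and pIRS1 peptide ([…]) after 30 min compound pre-incubation at pH 7.0 Bis-Tris propane. Four-parameter logistic IC50s in singlicate; repeat runs averaged.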

[1] = tested on: pERK (phospho-p44/42 MAPK Thr202/Tyr204) in HCC827 cells; assay: Cellular pERK Inhibition Assay, Method B (PathScan phospho-p44/42 MAPK sandwich ELISA); type: cell-based; conditions: for IC50: Homo sapiens
Description: Cellular pERK Inhibition Assay
HCC827 cells (ATCC, Manassas, USA) were seeded into 96-well plates at a density of 1×10^5 cells/well in RPMI medium supplemented with 10% FBS and incubated 24h. Compounds were diluted first in DMSO and then into serum-free medium, before being added to cells in triplicate to give a final concentration of 0.1% DMSO. Plates were incubated at 37° C. for the indicated time in a humidified atmosphere of 5% CO2 in air.
Following compound treatment, medium was removed and cells were lysed by adding 50 μL of lysis buffer (Cell Signalling Technology, Beverly, USA) to each well. Plates were then incubated at room temperature for 25 minutes with shaking. pERK levels were measured in lysates using the PathScan(Registered Trademark) phospho-p44/42 MAPK (Thr202/Tyr204) sandwich ELISA (Cell Signalling Technology, Beverly, USA) as per kit instructions. Briefly, 50 μL of cell lysate was added to 50 μL of ELISA sample diluent in a 96-well ELISA plate and incubated overnight at 4° C. Following washing, 100 μL of detection antibody was added per well and the plates incubated for 1 hour at 37° C. Plates were washed again and incubated at 37° C. for 30 minutes with 100 μl of HRP-linked secondary antibody per well. After final washing, 100 μL per well of TMB substrate was added and plates incubated at 37° C. to develop colour. Colour development was stopped by the addition of 100 μL per well of stop solution. Plates were read at 450 nm on a SpectraMax Gemini reader (Molecular Devices, Uckfield, UK).
The average signal from blank wells (no cells added) was subtracted from the signals from each sample well. Levels of pERK were then expressed as “percent of control”, using DMSO treated samples as control. Dose response curves were generated using GraphPad Prism Version 6 (GraphPad Software, La Jolla, USA) and fitted using the four parameter logistic curve fit.

[2] = Table 19, head prints unit as "-M"
[3] = Table 19, head prints unit as "-M", read-out: pERK (IC50) Method B
[4] = Table 20, read-out: pERK (IC50, μM) Method B

Chain of SHP2 (Q06124 whole entry): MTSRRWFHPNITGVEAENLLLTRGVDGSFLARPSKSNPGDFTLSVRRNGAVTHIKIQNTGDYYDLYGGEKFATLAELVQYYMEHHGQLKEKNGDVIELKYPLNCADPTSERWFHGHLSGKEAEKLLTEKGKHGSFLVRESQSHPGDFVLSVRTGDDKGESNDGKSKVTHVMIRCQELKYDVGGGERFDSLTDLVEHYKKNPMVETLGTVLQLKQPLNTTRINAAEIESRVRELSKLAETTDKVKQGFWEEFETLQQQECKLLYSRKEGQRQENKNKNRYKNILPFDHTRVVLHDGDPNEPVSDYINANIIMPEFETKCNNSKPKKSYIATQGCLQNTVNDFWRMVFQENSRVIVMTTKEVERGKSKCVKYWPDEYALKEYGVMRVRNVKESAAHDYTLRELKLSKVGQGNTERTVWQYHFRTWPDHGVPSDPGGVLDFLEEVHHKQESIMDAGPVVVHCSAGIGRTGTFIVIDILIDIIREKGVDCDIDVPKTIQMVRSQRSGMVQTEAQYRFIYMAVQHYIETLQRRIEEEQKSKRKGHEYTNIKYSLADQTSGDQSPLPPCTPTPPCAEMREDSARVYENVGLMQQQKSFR

Row | Compound | IC50 (SHP2; [2]) | IC50 [1, 3] | other results
1 | Cn1cc2c(Cl)c(-c3c[nH]c4nc(N5[C@@H]6CC[C@@H](N)[C@H]5CC6)n(C)c(=O)c34)ccc2n1 (racemic) [Example 152, rac-2-[(1R,2R,5R)-2-amino-8-azabicyclo[3.2.1]octan-8-yl]-5-(4-chloro-2-methyl-2H-indazol-5-yl)-3-methyl-3H,4H,7H-pyrrolo[2,3-d]pyrimidin-4-one] | 29 nM | 0.66 µM | –
2 | Cn1cc2c(Cl)c(-c3c[nH]c4nc(N5[C@@H]6CCNC[C@H]5CC6)n(C)c(=O)c34)ccc2n1 (racemic) [Example 153, rac-5-(4-chloro-2-methyl-2H-indazol-5-yl)-2-[(1R,6S)-3,9-diazabicyclo[4.2.1]nonan-9-yl]-3-methyl-3H,4H,7H-pyrrolo[2,3-d]pyrimidin-4-one] | 26 nM | 0.52 µM | –
3 | CCn1cc2c(Cl)c(-c3c[nH]c4nc(N5CCCC(N)CC5)n(C)c(=O)c34)ccc2n1 (racemic) [Example 154, rac-2-(4-aminoazepan-1-yl)-5-(4-chloro-2-ethyl-2H-indazol-5-yl)-3-methyl-3H,4H,7H-pyrrolo[2,3-d]pyrimidin-4-one hydrochloride] | 21 nM | 0.92 µM | –
4 | CCn1cc2c(Cl)c(-c3c[nH]c4nc(N5CC6CNC(C6)C5)n(C)c(=O)c34)ccc2n1 (single isomer, unassigned) [Example 190, 5-(4-chloro-2-ethyl-2H-indazol-5-yl)-2-{3,6-diazabicyclo[3.2.1]octan-3-yl}-3-methyl-3H,4H,7H-pyrrolo[2,3-d]pyrimidin-4-one hydrochloride] | – | – | IC50 (SHP2; Table 20): 45 nM; IC50 [1, 4]: 3.3 µM
5 | CCn1cc2c(Cl)c(-c3c[nH]c4nc(N5CC6CNC(C6)C5)n(C)c(=O)c34)ccc2n1 (single isomer, unassigned) [Example 191, 5-(4-chloro-2-ethyl-2H-indazol-5-yl)-2-{3,6-diazabicyclo[3.2.1]octan-3-yl}-3-methyl-3H,4H,7H-pyrrolo[2,3-d]pyrimidin-4-one hydrochloride] | – | – | IC50 (SHP2; Table 20): 92 nM; pERK Method B, % at given concentration ([1]; Table 20, at 10 uM): 60% at 10 uM
6 | CCn1cc2c(Cl)c(-c3c[nH]c4nc(N5CC6CNCC5C6)n(C)c(=O)c34)ccc2n1 (single isomer, unassigned) [Example 192, 5-(4-chloro-2-ethyl-2H-indazol-5-yl)-2-{3,6-diazabicyclo[3.2.1]octan-6-yl}-3-methyl-3H,4H,7H-pyrrolo[2,3-d]pyrimidin-4-one hydrochloride] | – | – | IC50 (SHP2; Table 20): 67 nM; IC50 [1, 4]: 0.99 µM
7 | Cn1cc2c(Cl)c(-c3n[nH]c4nc(N5[C@@H]6CC[C@H]5C[C@@H](N)C6)n(C)c(=O)c34)ccc2n1 [Example 136, endo-6-[3-amino-8-azabicyclo[3.2.1]octan-8-yl]-3-(4-chloro-2-methyl-2H-indazol-5-yl)-5-methyl-1H,4H,5H-pyrazolo[3,4-d]pyrimidin-4-one] | 30 nM | 2.7 µM | –
8 | Cn1cc2c(Cl)c(-c3n[nH]c4nc(N5C6CCC5CNC6)n(C)c(=O)c34)ccc2n1 [Example 137, 3-(4-chloro-2-methyl-2H-indazol-5-yl)-6-{3,8-diazabicyclo[3.2.1]octan-8-yl}-5-methyl-1H,4H,5H-pyrazolo[3,4-d]pyrimidin-4-one] | 59 nM | – | pERK Method B, % at given concentration ([1]; Table 19, at 3.0 μM): 45% at 3.0 μM
9 | Cn1cc2c(Cl)c(-c3n[nH]c4nc(N5CCC6(CC5)C[C@H](O)C[C@H]6N)n(C)c(=O)c34)ccc2n1 [Example 138, 6-[(1R,3S)-1-amino-3-hydroxy-8-azaspiro[4.5]decan-8-yl]-3-(4-chloro-2-methyl-2H-indazol-5-yl)-5-methyl-1H,4H,5H-pyrazolo[3,4-d]pyrimidin-4-one] | 19 nM | 1.6 µM | –
10 | Cn1cc2c(Cl)c(-c3n[nH]c4nc(N5CCC6(CC5)COC[C@H]6N)n(C)c(=O)c34)ccc2n1 [Example 139, 6-[(4S)-4-amino-2-oxa-8-azaspiro[4.5]decan-8-yl]-3-(4-chloro-2-methyl-2H-indazol-5-yl)-5-methyl-1H,4H,5H-pyrazolo[3,4-d]pyrimidin-4-one] | 20 nM | 0.097 µM | –
11 | Cn1cc2c(Cl)c(-c3n[nH]c4nc(N5[C@@H]6CC[C@H]5C[C@H](N)C6)n(C)c(=O)c34)ccc2n1 [Example 140, exo-6-[3-amino-8-azabicyclo[3.2.1]octan-8-yl]-3-(4-chloro-2-methyl-2H-indazol-5-yl)-5-methyl-1H,4H,5H-pyrazolo[3,4-d]pyrimidin-4-one] | 17 nM | 0.48 µM | –
12 | Cn1cc2c(Cl)c(-c3n[nH]c4nc(N5CCC6(CC5)CNC6)n(C)c(=O)c34)ccc2n1 [Example 141, 3-(4-chloro-2-methyl-2H-indazol-5-yl)-6-{2,7-diazaspiro[3.5]nonan-7-yl}-5-methyl-1H,4H,5H-pyrazolo[3,4-d]pyrimidin-4-one] | 43 nM | – | pERK Method B, % at given concentration ([1]; Table 19, at 10 μM): 64% at 10 μM
13 | Cn1cc2c(Cl)c(-c3n[nH]c4nc(N5CCC6(CCC[C@H]6N)CC5)n(C)c(=O)c34)ccc2n1 [Example 142, 6-[(1R)-1-amino-8-azaspiro[4.5]decan-8-yl]-3-(4-chloro-2-methyl-2H-indazol-5-yl)-5-methyl-1H,4H,5H-pyrazolo[3,4-d]pyrimidin-4-one] | 17 nM | 0.11 µM | –
14 | C[C@@H]1OCC2(CCN(c3nc4[nH]nc(-c5ccc6nn(C)cc6c5Cl)c4c(=O)n3C)CC2)[C@@H]1N [Example 143, 6-[(3S,4S)-4-amino-3-methyl-2-oxa-8-azaspiro[4.5]decan-8-yl]-3-(4-chloro-2-methyl-2H-indazol-5-yl)-5-methyl-1H,4H,5H-pyrazolo[3,4-d]pyrimidin-4-one] | 22 nM | 0.081 µM | –
15 | Cn1cc2c(Cl)c(-c3n[nH]c4nc(N5CCC6(CC5)C[C@@H](F)C[C@H]6N)n(C)c(=O)c34)ccc2n1 [Example 144, 6-[(1R,3R)-1-amino-3-fluoro-8-azaspiro[4.5]decan-8-yl]-3-(4-chloro-2-methyl-2H-indazol-5-yl)-5-methyl-1H,4H,5H-pyrazolo[3,4-d]pyrimidin-4-one hydrochloride salt] | 19 nM | 0.21 µM | –
16 | Cn1nc2ccc(-c3n[nH]c4nc(N5CC6COCC(C5)N6)n(C)c(=O)c34)c(Cl)c2c1Cl [Example 146, 3-(3,4-dichloro-2-methyl-2H-indazol-5-yl)-5-methyl-6-{3-oxa-7,9-diazabicyclo[3.3.1]nonan-7-yl}-1H,4H,5H-pyrazolo[3,4-d]pyrimidin-4-one hydrochloride salt] | 57 nM | 3.8 µM | –
17 | C[C@@H]1OCC2(CCN(c3nc4[nH]nc(-c5ccc6nn(C)c(Cl)c6c5Cl)c4c(=O)n3C)CC2)[C@@H]1N [Example 147, 6-[(3S,4S)-4-amino-3-methyl-2-oxa-8-azaspiro[4.5]decan-8-yl]-3-(3,4-dichloro-2-methyl-2H-indazol-5-yl)-5-methyl-1H,4H,5H-pyrazolo[3,4-d]pyrimidin-4-one hydrochloride salt] | 12 nM | 0.034 µM | –
18 | CCn1cc2c(Cl)c(-c3n[nH]c4nc(N5CCC6(CC5)CO[C@@H](C)[C@H]6N)n(C)c(=O)c34)ccc2n1 [Example 148, 6-[(3S,4S)-4-amino-3-methyl-2-oxa-8-azaspiro[4.5]decan-8-yl]-3-(4-chloro-2-ethyl-2H-indazol-5-yl)-5-methyl-1H,4H,5H-pyrazolo[3,4-d]pyrimidin-4-one hydrochloride salt] | 24 nM | 0.025 µM | –
19 | CCn1cc2c(Cl)c(-c3c[nH]c4nc(N5CCC6(CC5)CO[C@@H](C)[C@H]6N)n(C)c(=O)c34)ccc2n1 [Example 150, 2-[(3S,4S)-4-amino-3-methyl-2-oxa-8-azaspiro[4.5]decan-8-yl]-5-(4-chloro-2-ethyl-2H-indazol-5-yl)-3-methyl-3H,4H,7H-pyrrolo[2,3-d]pyrimidin-4-one] | 12 nM | 0.013 µM | –
20 | CCn1cc2c(Cl)c(-c3c[nH]c4nc(N5CCCNCC5)n(C)c(=O)c34)ccc2n1 [Example 151, 5-(4-chloro-2-ethyl-2H-indazol-5-yl)-2-(1,4-diazepan-1-yl)-3-methyl-3H,4H,7H-pyrrolo[2,3-d]pyrimidin-4-one hydrochloride] | 23 nM | 0.52 µM | –
21 | CCn1cc2cc(-c3c[nH]c4nc(N5CCC6(CC5)COC[C@H]6N)n(C)c(=O)c34)ccc2n1 [Example 180, 2-[(4S)-4-amino-2-oxa-8-azaspiro[4.5]decan-8-yl]-5-(2-ethyl-2H-indazol-5-yl)-3-methyl-3H,4H,7H-pyrrolo[2,3-d]pyrimidin-4-one hydrochloride] | – | – | IC50 (SHP2; Table 20): 34 nM; IC50 [1, 4]: 0.85 µM

From patent US12037345B2, “Heterobicyclic compounds for inhibiting the activity of SHP2” (TAIHO PHARMACEUTICAL CO., LTD., priority 2018, dated 2024)
